Experimental data taken from patent US20230219886A1, “NOVEL SELENO-NSAID ANALOGS AND USES THEREOF” (THE PENN STATE RESEARCH FOUNDATION, priority 2020, published 2023).
Where two headings read alike, the source gives them in different places.

How the values were obtained:
HT-29 (CRC) = assay: MTT cell viability assay, HT-29; conditions: for CC50: read-out: LC50; for cell viability: 48 h
Procedure: (§1) Cell Culture Conditions. The cell lines were obtained from the American Type Culture Collection (ATCC). PANC-1 and Caco-2 cell lines were maintained in DMEM medium (Gibco); HT-29, HCT-116 and RKO cells were maintained in McCoy's 5A medium (Gibco); and DU-145 and H1299 cells were maintained in RPMI 1640 medium (Gibco), supplemented with 10% fetal bovine serum (FBS; Gibco) and 1% antibiotics (10.00 units/mL penicillin and 10.00 mg/mL streptomycin; Gibco). Cells were preserved in tissue culture flasks at 37° C. and 5% CO2. Culture medium was replaced every three days.
(§2) Cell Viability Assay. The effect of each compound on cell viability was tested using the MTT assay (81). Briefly, 9000 cells/well were grown in 96-well plates for 12 h. Then these cells were incubated with either DMSO (control) or nine different concentration between 0.01-50 μM of the test compounds for 24, 48, and 72 h. Three hours before the termination point, 20 μL of MTT were added to measure cellular viability. The resultant formazan crystals were dissolved in 50 μL of DMSO, and absorbance was measured at 570 nm and 630 nm wavelengths. IC50, GI50, TGI and LC50 values were calculated using OriginPro 8.5.1.
(§3) Evaluation of the antiproliferative activities of the novel molecules. […] These four cell lines were treated with each compound at three concentrations (5, 25 and 50 μM) for 48 h.

p21 = assay: Western blot protein expression, p21; assay type: cell-based, human; conditions: HT-29, IC50 dose, 12 h and 24 h
Procedure: (§4) Protein Expression Analysis. Western Blot was performed to assess the expression level of different proteins before and after treatment. In brief, HT-29 cells were treated with the compound for different time intervals and the whole-cell lysates were made by lysing cells using RIPA buffer (Thermo Scientific, USA). Protease (Roche, USA) and phosphatase inhibitor cocktails (Sigma-Aldrich, USA) were used to prevent the degradation of the proteins present in the lysate. The resulting lysates were incubated on ice for 30 min and spun at 10,000 rpm for 15 min to pellet down cell debris. The total protein concentration was determined using Bradford assay (Thermo Scientific, USA). Equal amounts of cell lysates were resolved using NuPAGE gel 4-12% (Life Technologies, Carlsbad, Calif.). The resolved proteins were electro-transferred to a PVDF membrane and different antibodies were used to probe the protein expression levels. Enhanced Chemiluminescent reagent (Life technologies, USA) was used to detect the protein of interest.
(§5) To further explore the underlying mechanism of the cell cycle arrest, we studied the expression levels of the different proteins involved in the cell cycle regulation. […] At both time intervals of 12 h and 24 h, the expression levels of cell cycle regulatory proteins cyclin E1 and cyclin B1 were inhibited while p21 was induced (FIG. 7B).

HCT-116 CRC cells = assay: MTT cell viability assay, HCT-116; assay type: cell-based, human; conditions: read-out: IC50
Procedure: as §1, §2

Cyclin B1 = assay: Western blot protein expression, Cyclin B1; assay type: cell-based, human; conditions: HT-29, IC50 dose, 12 h and 24 h
Procedure: as §4, §5

[1] = system: PANC-1 (pancreatic carcinoma); assay: MTT cell viability assay, Panc-1; conditions: for cell viability: 48 h
Procedure: as §1, §2, §3

[2] = system: human CRC cells (HT-29, HCT-116, RKO and CACO-2); assay: MTT assay, panel of four CRC cells; assay type: cell-based; conditions: 4 CRC cells
Procedure: Cell Culture Conditions. […] Culture medium was replaced every three days.
Evaluation of the antiproliferative activity of methylseleno-NSAIDs, MSA and NSAIDs alone or in combination. […] CRC cells were treated for 24, 48 and 72 h at different concentrations to stablish the dose-response curves.

HT-29 cells [3] = assay: Annexin V & Dead cell apoptosis assay; assay type: cell-based, human; conditions: HT29, 5 μM, 12 h
Procedure: (§6) Apoptosis assay. Induction of apoptosis after the treatment with compounds 1a and 6a were analyzed using Annexin V & Dead cell assay kit and Caspase 3/7 Assay kit (EMD Millipore, Billercia, Mass.) using Muse cell analyzer following manufacturer's protocol. Briefly, the HT-29 cells were plated in triplicates in a six-well plate at densities of 1×10^5 cells/well. Following day, the cells were treated with the compounds 1a and 6a and incubated for 48 h. At the end of the treatment duration, the cells were prepared following manufacturer's guidelines and the data were acquired using Muse 1.4 software.
(§7) Compounds 1a and 6a induced apoptosis in CRC cells. We further investigated whether the inhibition of cell cycle leads to apoptosis. In pursuit of this, HT29 cells were treated with 5 μM of the compounds 1a and 6a for indicated time intervals. Apoptosis was measured by using Annexin V & Dead cell assay kit and Caspase 3/7 Assay kit using Muse cell analyzer following manufacturer's protocol. The live cell population resided in the lower left quadrant and they start shifting towards the lower right quadrant (early apoptotic) or to upper right quadrant (late apoptotic/dead) after treatments. […] A similar trend was also observed after 6a treatment where the live cell population were decreased from <75% to <65% after 12 h and 24 h treatment, respectively.

HT-29 cells [4] = assay: Caspase 3/7 assay; assay type: cell-based, human; conditions: HT29, 5 μM
Procedure: as §6, §7

RKO CRC cells = assay: cells
Procedure: as §1, §2

CACO-2 CRC cells = assay: cells
Procedure: as §1, §2

[5] = Homo sapiens, HT-29, 48 h, read-out: cell viability
[6] = Homo sapiens, PANC-1, 48 h, read-out: cell viability

SMILES: C[Se]C(=O)c1ccccc1OC(C)=O [Compound 1a, 2-((methylselanyl)carbonyl)phenyl acetate]
- increase on cytotoxic potency compared with parent NSAID scaffolds (HT-29 (CRC)): three-fold
- TGI (HT-29 (CRC); HT-29, 24 h): 500 ± 300 nM
- TGI (HT-29 (CRC); HT-29, 48 h): 200 ± 100 nM
- TGI (HT-29 (CRC); HT-29, 72 h): 700 ± 300 nM
- GI50 (HT-29 (CRC); Homo sapiens, HT-29, 24 h): 100 ± 100 nM
- IC50 (HT-29 (CRC); Homo sapiens, HT-29, 24 h): 1900 ± 600 nM
- CC50 (HT-29 (CRC); Homo sapiens, HT-29, 24 h): 1700 ± 1600 nM
- GI50 (HT-29 (CRC); Homo sapiens, HT-29, 48 h): 100 ± 100 nM
- IC50 (HT-29 (CRC); Homo sapiens, HT-29, 48 h): 1200 ± 100 nM
- CC50 (HT-29 (CRC); Homo sapiens, HT-29, 48 h): 700 ± 100 nM
- viability at 5 µM (HT-29 (CRC); [5]): 20.8 ± 5.6%
- viability at 25 µM (HT-29 (CRC); [5]): 18.5 ± 4.1%
- viability at 50 µM (HT-29 (CRC); [5]): 17.7 ± 12.6%
- GI50 (HT-29 (CRC); Homo sapiens, HT-29, 72 h): 200 ± 100 nM
- IC50 (HT-29 (CRC); Homo sapiens, HT-29, 72 h): 1200 ± 400 nM
- CC50 (HT-29 (CRC); Homo sapiens, HT-29, 72 h): 2500 ± 1400 nM
- cytotoxicity at 5 µM (HT-29 (CRC); Homo sapiens, HT-29, read-out: inhibition in cell viability): 75 to 80%
- expression level of p21 (p21): sharp increase
- IC50 (HCT-116 CRC cells; Homo sapiens, HCT-116, 24 h): > 50000 nM
- IC50 (HCT-116 CRC cells; Homo sapiens, HCT-116, 48 h): 2200 ± 300 nM
- IC50 (HCT-116 CRC cells; Homo sapiens, HCT-116, 72 h): 1000 ± 200 nM
- expression level of Cyclin B1 (Cyclin B1): went down substantially
- viability at 5 µM [1, 6]: 43.7 ± 12.1%
- viability at 25 µM [1, 6]: 36.9 ± 6.3%
- viability at 50 µM [1, 6]: 36.8 ± 6.8%
- anti-tumoral activity versus MSA and NSAIDs as single agents or combined [2]: higher anti-tumoral activity
- live cells (HT-29 cells [3]): < 76%
- apoptotic cell population (HT-29 cells [4]): time dependent increase
- IC50 (RKO CRC cells; Homo sapiens, 24 h): > 50000 nM
- IC50 (RKO CRC cells; Homo sapiens, 48 h): > 50000 nM
- IC50 (RKO CRC cells; Homo sapiens, 72 h): > 50000 nM
- IC50 (CACO-2 CRC cells; Homo sapiens, Caco-2, 24 h): 2600 ± 200 nM
- IC50 (CACO-2 CRC cells; Homo sapiens, Caco-2, 48 h): 900 ± 100 nM
- IC50 (CACO-2 CRC cells; Homo sapiens, Caco-2, 72 h): 800 ± 100 nM

SMILES: C[Se]C(=O)CC1=C(C)/C(=C/c2ccc([S+](C)[O-])cc2)c2ccc(F)cc21 (stereo not shown) [Compound 6a, Se-methyl (Z)-2-(5-fluoro-2-methyl-1-(4-(methylsulfinyl)benzylidene)-1H-indenyl)ethaneselenoate]
- increase on cytotoxic potency compared with parent NSAID scaffolds (HT-29 (CRC); HT-29): three-fold
- cell viability (HT-29 (CRC); HT-29, 5 μM): 22.9 ± 2.9%
- cell viability (HT-29 (CRC); HT-29, 25 μM): 11.9 ± 6.6%
- cell viability (HT-29 (CRC); HT-29, 50 μM): 11.1 ± 6.2%
- GI50 (HT-29 (CRC); HT-29, 24 h): 1200 ± 1100 nM
- IC50 (HT-29 (CRC); HT-29, 24 h): 2400 ± 300 nM
- TGI (HT-29 (CRC); HT-29, 24 h): 9900 ± 3900 nM
- GI50 (HT-29 (CRC); HT-29, 48 h): 1400 ± 700 nM
- IC50 (HT-29 (CRC); HT-29, 48 h): 2000 ± 700 nM
- TGI (HT-29 (CRC); HT-29, 48 h): 3300 ± 300 nM
- GI50 (HT-29 (CRC); HT-29, 72 h): 500 ± 500 nM
- IC50 (HT-29 (CRC); HT-29, 72 h): 1400 ± 300 nM
- TGI (HT-29 (CRC); HT-29, 72 h): 2400 ± 400 nM
- CC50 (HT-29 (CRC); HT-29, 24 h): > 50000 nM
- CC50 (HT-29 (CRC); HT-29, 48 h): 10100 ± 5200 nM
- CC50 (HT-29 (CRC); HT-29, 72 h): 6300 ± 700 nM
- expression level of p21 (p21): sharp increase
- IC50 (HCT-116 CRC cells; HCT-116, 24 h): 7300 ± 2300 nM
- IC50 (HCT-116 CRC cells; HCT-116, 48 h): 3200 ± 700 nM
- IC50 (HCT-116 CRC cells; HCT-116, 72 h): 1800 ± 600 nM
- expression level of Cyclin B1 (Cyclin B1): went down substantially
- cell viability ([1]; Panc-1, 5 μM): 49.4 ± 20.1%
- cell viability ([1]; Panc-1, 25 μM): 29.0 ± 9.5%
- cell viability ([1]; Panc-1, 50 μM): 21.3 ± 9.2%
- anti-tumoral activity versus MSA and NSAIDs as single agents or combined [2]: higher anti-tumoral activity
- live cells (HT-29 cells [3]): < 75%
- apoptotic cell population (HT-29 cells [4]): time dependent increase
- IC50 (RKO CRC cells; RKO, 24 h): > 50000 nM
- IC50 (RKO CRC cells; RKO, 48 h): 17200 ± 2400 nM
- IC50 (RKO CRC cells; RKO, 72 h): 17300 ± 800 nM
- IC50 (CACO-2 CRC cells; CACO-2, 24 h): 3000 ± 500 nM
- IC50 (CACO-2 CRC cells; CACO-2, 48 h): 1300 ± 600 nM
- IC50 (CACO-2 CRC cells; CACO-2, 72 h): 700 ± 200 nM
